This note sets out measurements from ChEMBL document CHEMBL4476867, “Hydroxy formamide derivatives and their use” (2016).

The target of experiment [1] is T1, Bone morphogenetic protein 1 (Homo sapiens, UniProt P13497).
T1 sequence (P13497 whole entry): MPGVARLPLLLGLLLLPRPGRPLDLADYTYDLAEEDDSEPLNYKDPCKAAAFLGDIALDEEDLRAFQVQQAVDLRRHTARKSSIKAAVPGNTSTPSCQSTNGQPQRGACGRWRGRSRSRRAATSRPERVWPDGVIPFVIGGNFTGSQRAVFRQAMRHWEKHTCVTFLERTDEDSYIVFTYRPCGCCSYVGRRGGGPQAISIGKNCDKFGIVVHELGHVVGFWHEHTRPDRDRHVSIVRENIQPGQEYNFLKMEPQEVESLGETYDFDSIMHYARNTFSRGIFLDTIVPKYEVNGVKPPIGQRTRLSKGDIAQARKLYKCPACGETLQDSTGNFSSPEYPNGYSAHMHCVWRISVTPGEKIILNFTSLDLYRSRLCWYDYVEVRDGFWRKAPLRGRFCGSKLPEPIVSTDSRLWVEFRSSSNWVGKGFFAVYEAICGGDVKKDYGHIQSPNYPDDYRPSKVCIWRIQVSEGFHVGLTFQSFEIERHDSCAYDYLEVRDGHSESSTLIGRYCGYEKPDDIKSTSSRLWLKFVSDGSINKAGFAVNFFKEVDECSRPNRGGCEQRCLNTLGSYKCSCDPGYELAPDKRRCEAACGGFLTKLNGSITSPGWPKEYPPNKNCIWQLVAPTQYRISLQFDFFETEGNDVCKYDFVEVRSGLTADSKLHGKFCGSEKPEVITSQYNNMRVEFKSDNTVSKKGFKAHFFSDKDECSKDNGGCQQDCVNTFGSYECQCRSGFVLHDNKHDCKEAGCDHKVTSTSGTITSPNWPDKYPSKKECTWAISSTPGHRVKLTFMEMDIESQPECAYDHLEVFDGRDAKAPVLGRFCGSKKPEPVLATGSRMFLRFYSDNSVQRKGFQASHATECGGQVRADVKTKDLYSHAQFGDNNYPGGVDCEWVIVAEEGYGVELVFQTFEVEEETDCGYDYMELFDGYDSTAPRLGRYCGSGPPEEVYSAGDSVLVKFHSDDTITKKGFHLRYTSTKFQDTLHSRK
Nature of the experiment: Inhibition of C-terminal FLAG-6x-His epitope tagged and N-terminal human RAGE signal sequence tagged human BMP1 (23 to 721 amino acids) expressed in CHO-E1 cells pre-incubated for 10 mins before promyostatin peptide substrate addition and measured after 30 mins using 50 nM BMP1 by FRET based assay. The format is cell-based.

A short description of experiment [2]: Reduction in PICP levels in human cardiac fibroblasts incubated for 24 to 48 hrs by ELISA. It counts as functional. An outline of the steps:
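Human cardiac fibroblasts at passage 6 or below were plated in 96-well plates at 10,000 to 15,000 cells per well. On the following day, cells were treated for 24 to 48 hr at 37° C in ficoll crowding EMEM containing 100 μM ascorbic acid, with DMSO kept under 0.3%. A Quidel ELISA measured procollagen I C-terminal propeptide released into the medium, and IC50 values were derived in GraphPad Prism by fitting levels, expressed relative to untreated controls, to a log(inhibitor)-response equation.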
In general terms: In an ELISA, binding on a coated surface is turned into a signal by an enzyme label.

Experiment [3] deals with T2, Tolloid-like protein 2 (Homo sapiens, UniProt Q9Y6L7).
T2 sequence (Q9Y6L7 whole entry): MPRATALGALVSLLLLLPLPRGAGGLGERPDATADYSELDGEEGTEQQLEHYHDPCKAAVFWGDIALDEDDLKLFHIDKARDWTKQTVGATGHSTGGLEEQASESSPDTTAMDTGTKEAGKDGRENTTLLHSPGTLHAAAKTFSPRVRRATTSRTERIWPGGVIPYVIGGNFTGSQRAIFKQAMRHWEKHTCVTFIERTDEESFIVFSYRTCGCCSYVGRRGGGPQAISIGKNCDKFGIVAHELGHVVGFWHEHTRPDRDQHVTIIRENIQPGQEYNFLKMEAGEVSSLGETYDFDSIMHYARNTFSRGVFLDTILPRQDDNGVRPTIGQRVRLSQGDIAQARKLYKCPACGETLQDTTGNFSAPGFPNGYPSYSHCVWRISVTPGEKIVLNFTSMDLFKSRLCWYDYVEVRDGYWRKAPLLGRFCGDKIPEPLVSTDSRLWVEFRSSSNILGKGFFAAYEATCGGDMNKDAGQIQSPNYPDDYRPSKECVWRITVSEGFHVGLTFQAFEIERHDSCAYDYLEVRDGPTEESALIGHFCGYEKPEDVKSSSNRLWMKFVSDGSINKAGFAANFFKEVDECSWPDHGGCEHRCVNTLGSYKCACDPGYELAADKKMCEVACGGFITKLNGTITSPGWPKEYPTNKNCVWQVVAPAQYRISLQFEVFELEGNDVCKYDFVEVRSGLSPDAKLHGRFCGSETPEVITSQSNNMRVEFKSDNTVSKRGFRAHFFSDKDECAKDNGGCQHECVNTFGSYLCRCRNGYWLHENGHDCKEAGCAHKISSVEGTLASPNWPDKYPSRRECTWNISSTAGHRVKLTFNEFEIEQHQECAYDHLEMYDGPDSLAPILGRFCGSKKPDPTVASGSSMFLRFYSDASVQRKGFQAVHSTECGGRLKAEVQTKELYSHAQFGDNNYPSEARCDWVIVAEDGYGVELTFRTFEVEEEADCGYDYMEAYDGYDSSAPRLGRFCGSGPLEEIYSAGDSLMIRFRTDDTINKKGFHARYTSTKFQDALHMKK
Nature of the experiment: Inhibition of C-terminal Avi-6x-His epitope tagged and N-terminal human RAGE signal sequence tagged recombinant human TLL2 (26 to 1015 amino acids) expressed in CHOE1A cells incubated for 60 mins with promyostatin peptide substrate by FRET based assay. It counts as cell-based.

Experiment [4] has as its target T1, Bone morphogenetic protein 1. Kind of experiment: Inhibition of C-terminal FLAG-6x-His epitope tagged and N-terminal human RAGE signal sequence tagged human BMP1 (23 to 721 amino acids) expressed in CHO-E1 cells pre-incubated for 10 mins before promyostatin peptide substrate addition and measured after 60 mins using 0.5 nM BMP1 by FRET based assay. It counts as cell-based.

Experiment [5] concerns the target Tolloid-like protein 1 (Homo sapiens, UniProt O43897, I156V/N221S/V284A). Nature of the experiment: Inhibition of recombinant human TLL1 I156V/N221S/V284A mutant expressed in CHOE1A cells pre-incubated for 10 mins before promyostatin peptide substrate addition and measured after 60 mins by FRET based assay. The format is cell-based.

Sequence of Tolloid-like protein 1 (O43897 148-1013 I156V/N221S/V284A limits assumed): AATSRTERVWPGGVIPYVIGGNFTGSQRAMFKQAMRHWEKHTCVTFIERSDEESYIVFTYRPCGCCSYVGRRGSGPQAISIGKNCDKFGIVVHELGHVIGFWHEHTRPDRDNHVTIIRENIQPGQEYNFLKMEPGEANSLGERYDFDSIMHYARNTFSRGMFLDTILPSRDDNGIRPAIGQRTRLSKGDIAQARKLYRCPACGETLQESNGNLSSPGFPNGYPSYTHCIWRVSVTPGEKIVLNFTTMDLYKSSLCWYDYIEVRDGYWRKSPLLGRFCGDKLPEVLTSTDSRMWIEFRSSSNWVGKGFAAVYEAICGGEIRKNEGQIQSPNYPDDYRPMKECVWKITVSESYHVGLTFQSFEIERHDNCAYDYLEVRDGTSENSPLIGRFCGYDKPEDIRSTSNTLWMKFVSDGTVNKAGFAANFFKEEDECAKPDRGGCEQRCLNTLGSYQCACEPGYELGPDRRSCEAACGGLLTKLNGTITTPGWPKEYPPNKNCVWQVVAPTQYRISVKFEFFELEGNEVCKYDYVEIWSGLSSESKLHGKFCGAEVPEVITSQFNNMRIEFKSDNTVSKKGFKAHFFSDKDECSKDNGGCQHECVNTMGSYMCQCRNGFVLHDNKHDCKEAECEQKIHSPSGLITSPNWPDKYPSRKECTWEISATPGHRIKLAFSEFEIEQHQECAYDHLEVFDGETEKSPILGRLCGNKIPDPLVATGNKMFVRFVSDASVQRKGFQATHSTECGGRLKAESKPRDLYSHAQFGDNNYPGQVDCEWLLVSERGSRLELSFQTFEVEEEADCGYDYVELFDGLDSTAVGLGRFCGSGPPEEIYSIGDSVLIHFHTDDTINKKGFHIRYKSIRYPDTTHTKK

Consider `CCCCC[C@@H](C(=O)NCNC(=O)c1ccc(-c2cc(OCC)cc(P(=O)(O)OC)c2)o1)[C@@H](CC)N(O)C=O`, for which the half-inhibitory concentration (IC50) (usually the point on the concentration scale where inhibition reaches its midpoint) in experiment [1] was under 200 nM; in experiment [2], under 3980 nM; in experiment [3], under 794 nM; in experiment [4], under 126 nM; in experiment [5], under 398 nM.
With `CCCCC[C@@H](C(=O)NCNC(=O)c1ccc(-c2ccc(C(=O)N[C@@H](CCC(=O)O)C(=O)O)c(OCC)c2)o1)[C@@H](CC)N(O)C=O`, the IC50 in experiment [1] is under 200 nM; in experiment [2] it was under 3980 nM; in experiment [3] it was under 794 nM; in experiment [4], under 126 nM; in experiment [5], under 398 nM.
Regarding `CCCCC[C@H](CN(O)C=O)C(=O)NCNC(=O)c1ccc(-c2cccc(N(C)C)c2)o1`, the half-maximal inhibitory concentration (IC50) in experiment [1] was under 200 nM; in experiment [2], under 3980 nM; in experiment [3], under 794 nM; in experiment [4], under 126 nM; in experiment [5], under 398 nM.
On the same counts, the results for `CCCCC[C@@H](C(=O)NCNC(=O)c1ccc(-c2ccc(C(=O)N[C@H](CC(=O)O)C(=O)O)cc2)o1)[C@@H](CC)N(O)C=O` are under 200 nM, under 3980 nM, under 794 nM, under 126 nM and under 398 nM.
On the same counts, the results for `CCCCC[C@@H](C(=O)NCNC(=O)c1ccc(-c2cc(OCC(N)=O)cc(C(=O)O)c2)o1)[C@@H](CC)N(O)C=O` are under 200 nM, under 3980 nM, under 794 nM, under 126 nM and under 398 nM.
Turning to `CCCCC[C@H](CN(O)C=O)C(=O)NCNC(=O)c1ccc(-c2cc(OC)cc(C(=O)O)c2)o1`, the IC50 is under 200 nM in experiment [1]; under 3980 nM in experiment [2]; under 794 nM in experiment [3]; under 126 nM in experiment [4]; under 398 nM in experiment [5].
With `CCOc1cc(-c2ccc(C(=O)NCNC(=O)[C@H](CCc3ccccc3)[C@@H](CC)N(O)C=O)o2)cc(P(=O)(O)O)c1`, the IC50 is under 200 nM in experiment [1]; under 3980 nM in experiment [2]; under 794 nM in experiment [3]; under 126 nM in experiment [4]; under 398 nM in experiment [5].
Regarding `CCCCC[C@H](CN(O)C=O)C(=O)NCNC(=O)c1ccc(-c2cc(OC)ccc2OC)o1`, the IC50 was under 200 nM in experiment [1]; under 3980 nM in experiment [2]; under 794 nM in experiment [3]; under 126 nM in experiment [4]; under 398 nM in experiment [5].
With `CCCCC[C@@H](C(=O)NCNC(=O)c1ccc(-c2cc(OCC)cc(C(F)(F)C(=O)O)c2)o1)[C@@H](CC)N(O)C=O`, the IC50 was under 200 nM in experiment [1]; under 3980 nM in experiment [2]; under 794 nM in experiment [3]; under 126 nM in experiment [4]; under 398 nM in experiment [5].
For the molecule `CCCCC[C@H](CN(O)C=O)C(=O)NCNC(=O)c1ccc(-c2cccc(OCC)c2)o1`, the half-maximal inhibitory concentration (IC50) in experiment [1] was under 200 nM; in experiment [2], under 3980 nM; in experiment [3], under 794 nM; in experiment [4] it was under 126 nM; in experiment [5] it was under 398 nM.
`CCCCC[C@@H](C(=O)NCNC(=O)c1ccc(-c2ccc(C(C)(C)C(=O)O)cc2)o1)[C@@H](CC)N(O)C=O`: the IC50 in experiment [1] was under 200 nM; in experiment [2] it was under 3980 nM; in experiment [3], under 794 nM; in experiment [4] it was under 126 nM; in experiment [5], under 398 nM.
With `CCCCC[C@@H](C(=O)NCNC(=O)c1ccc(-c2cc(OCC)cc(C(=O)NCCN)c2)o1)[C@@H](CC)N(O)C=O`, the IC50 in experiment [1] was under 200 nM; in experiment [2], under 3980 nM; in experiment [3], under 794 nM; in experiment [4], under 126 nM; in experiment [5] it was under 398 nM.
In the case of `CCCCC[C@H](CN(O)C=O)C(=O)NCNC(=O)c1ccc(-c2cccc([N+](=O)[O-])c2)o1`, the IC50 in experiment [1] is under 200 nM; in experiment [2], under 3980 nM; in experiment [3] it was under 794 nM; in experiment [4], under 126 nM; in experiment [5], under 398 nM.
For `CCCCC[C@H](CN(O)C=O)C(=O)NCNC(=O)c1ccc(-c2cccc(C(C)C(=O)O)c2)o1` (stereo not given in full), the IC50 in experiment [1] was under 200 nM; in experiment [2], under 3980 nM; in experiment [3], under 794 nM; in experiment [4] it was under 126 nM; in experiment [5], under 398 nM.
With `CCCCC[C@H](CN(O)C=O)C(=O)NCNC(=O)c1ccc(-c2cccc(C(=O)O)c2F)o1`, the IC50 in experiment [1] is under 200 nM; in experiment [2], under 3980 nM; in experiment [3] it was under 794 nM; in experiment [4], under 126 nM; in experiment [5], under 398 nM.
On the same counts, the results for `CCCCC[C@H](CN(O)C=O)C(=O)NCNC(=O)c1ccc(-c2cccc(OC(F)(F)F)c2)o1` are under 200 nM, under 3980 nM, under 794 nM, under 126 nM and under 398 nM.
Consider `CCCCC[C@@H](C(=O)NCNC(=O)c1ccc(-c2ccc(C(=O)N[C@@H](CC(=O)O)C(=O)O)c(C)c2)o1)[C@@H](CC)N(O)C=O`, for which the IC50 in experiment [1] was under 200 nM; in experiment [2], under 3980 nM; in experiment [3], under 794 nM; in experiment [4], under 126 nM; in experiment [5] it was under 398 nM.
For `CCCCC[C@H](CN(O)C=O)C(=O)NCNC(=O)c1ccc(-c2cccc(S(=O)(=O)NC)c2)o1`, the IC50 is under 200 nM in experiment [1]; under 3980 nM in experiment [2]; under 794 nM in experiment [3]; under 126 nM in experiment [4]; under 398 nM in experiment [5].
Regarding `CCCCC[C@@H](C(=O)NCNC(=O)c1ccc(-c2cc(CN(C)CC(=O)O)cc(OCC)c2)o1)[C@@H](CC)N(O)C=O`, the IC50 in experiment [1] was under 200 nM; in experiment [2], under 3980 nM; in experiment [3] it was under 794 nM; in experiment [4] it was under 126 nM; in experiment [5], under 398 nM.
Take `CCCCC[C@H](CN(O)C=O)C(=O)NCNC(=O)c1ccc(-c2ccc(C(=O)O)cc2)o1`: the IC50 in experiment [1] is under 200 nM; in experiment [2], under 3980 nM; in experiment [3], under 794 nM; in experiment [4] it was under 126 nM; in experiment [5], under 398 nM.
